{"source": "paper PMC7070407", "about": "“Moringin, A Stable Isothiocyanate from Moringa oleifera, Activates the Somatosensory and Pain Receptor TRPA1 Channel In Vitro” (Molecules, 2020)", "key": {"rat TRPV3": {"target": "T1, rat TRPV3 (Rattus norvegicus, UniProt Q4QYD9)", "T1 construct": "expressed in transfected cells; host or cells: HEK-293", "T1 sequence (Q4QYD9 1-791)": "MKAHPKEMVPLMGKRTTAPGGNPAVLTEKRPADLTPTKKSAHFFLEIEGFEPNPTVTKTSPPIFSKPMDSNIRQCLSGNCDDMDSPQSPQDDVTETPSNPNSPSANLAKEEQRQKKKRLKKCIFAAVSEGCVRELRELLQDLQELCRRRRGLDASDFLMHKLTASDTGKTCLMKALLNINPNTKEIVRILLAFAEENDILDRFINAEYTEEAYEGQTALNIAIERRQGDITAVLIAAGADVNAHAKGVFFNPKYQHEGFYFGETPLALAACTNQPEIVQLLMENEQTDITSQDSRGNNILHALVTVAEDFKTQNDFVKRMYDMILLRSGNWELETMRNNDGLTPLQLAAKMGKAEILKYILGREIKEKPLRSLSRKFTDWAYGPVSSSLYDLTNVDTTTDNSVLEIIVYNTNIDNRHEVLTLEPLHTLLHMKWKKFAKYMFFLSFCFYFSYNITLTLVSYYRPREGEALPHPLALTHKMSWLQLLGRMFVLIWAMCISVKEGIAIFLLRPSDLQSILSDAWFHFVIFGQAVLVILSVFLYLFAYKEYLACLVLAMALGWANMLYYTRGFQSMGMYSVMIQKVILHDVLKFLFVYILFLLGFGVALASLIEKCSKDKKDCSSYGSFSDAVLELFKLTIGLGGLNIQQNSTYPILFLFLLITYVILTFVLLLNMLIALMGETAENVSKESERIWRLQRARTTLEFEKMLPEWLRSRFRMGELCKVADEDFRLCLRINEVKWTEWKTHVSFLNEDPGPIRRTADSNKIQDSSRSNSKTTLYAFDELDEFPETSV", "assay": "Elevation of intracellular Ca2+ (Fluo-4) in HEK-293 cells stably transfected with rat TRPV3", "type": "cell-based", "conditions": "TRPV3, against reference agonist thymol 100 μM", "description": "(§1) Assay of rat TRPA1, TRPV2, TRPV3, TRPV4, TRPM8 or human TRPV1 mediated elevation of intracellular Ca^2+ in transfected HEK-293 cells are been performed as described. Briefly, human embryonic kidney (HEK-293) cells, stably transfected with rat TRPA1, TRPV2, TRPV3, TRPV4, TRPM8 or human TRPV1 (selected by Geneticin 600 μg mL^−1) or not transfected, were cultured in EMEM + 2 mM Glutamine + 1% Non-Essential Amino Acids (NEAA) + 10% FBS and maintained at 37 °C with 5% CO2. Stable transfections were checked by quantitative real-time polymerase chain reaction (PCR), quantitative real-time PCR was performed by an iCycler-iQ (Bio-Rad, Hercules, CA, USA) in a 20 μL reaction mixture containing the following: 10 μL iQ SYBR Green Supermix 2X (Bio-Rad), 20 ng of cDNA (calculated on the basis of the retro-transcribed RNA), and 330 nM for each primer. […] The day of the experiment the cells were loaded with Fluo-4 AM (4 μM in DMSO containing 0.02% Pluronic F-127) for 1 h in the dark at room temperature, rinsed and resuspended in Tyrode’s solution (145 mM NaCl, 2.5 mM KCl, 1.5 mM CaCl2, 1.2 mM MgCl2, 10 mM D-glucose, and 10 mM HEPES, pH 7.4), finally transferred to a quartz cuvette of a spectrofluorimeter (Perkin-Elmer LS50B; λEX = 488 nm, λEM = 516 nm) equipped with PTP-1 Fluorescence Peltier System (PerkinElmer Life and Analytical Sciences, Waltham, MA, USA) under continuous stirring. […]"}, "rat TRPV2": {"target": "T2, rat TRPV2 (Rattus norvegicus, UniProt Q9WUD2)", "T2 construct": "expressed in transfected cells; host or cells: HEK-293", "T2 sequence (Q9WUD2 1-761)": "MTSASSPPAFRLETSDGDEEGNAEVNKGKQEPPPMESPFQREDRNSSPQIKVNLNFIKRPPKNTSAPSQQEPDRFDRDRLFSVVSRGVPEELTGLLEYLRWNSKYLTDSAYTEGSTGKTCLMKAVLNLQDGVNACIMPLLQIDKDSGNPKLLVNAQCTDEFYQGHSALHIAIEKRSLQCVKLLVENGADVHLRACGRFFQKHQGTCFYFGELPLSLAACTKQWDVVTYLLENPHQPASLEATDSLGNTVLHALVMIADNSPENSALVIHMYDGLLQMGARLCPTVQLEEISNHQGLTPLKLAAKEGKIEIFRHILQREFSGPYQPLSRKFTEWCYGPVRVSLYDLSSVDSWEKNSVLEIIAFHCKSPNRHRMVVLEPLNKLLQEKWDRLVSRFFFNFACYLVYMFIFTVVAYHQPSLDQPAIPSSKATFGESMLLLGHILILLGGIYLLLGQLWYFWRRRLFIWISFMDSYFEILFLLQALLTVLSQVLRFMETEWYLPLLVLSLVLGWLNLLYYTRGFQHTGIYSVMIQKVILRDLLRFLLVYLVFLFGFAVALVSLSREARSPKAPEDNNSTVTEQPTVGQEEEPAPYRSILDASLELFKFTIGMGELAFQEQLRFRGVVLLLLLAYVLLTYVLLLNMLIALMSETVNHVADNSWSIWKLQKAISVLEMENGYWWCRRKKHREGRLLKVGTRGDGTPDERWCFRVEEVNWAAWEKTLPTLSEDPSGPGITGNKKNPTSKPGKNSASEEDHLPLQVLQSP", "assay": "Elevation of intracellular Ca2+ (Fluo-4) in HEK-293 cells stably transfected with rat TRPV2", "type": "cell-based", "description": "as §1"}, "[1]": {"tested_on": "not transfected HEK-293 cells", "assay": "Effect on [Ca2+]i in not transfected HEK-293 cells (baseline)", "type": "cell-based, human", "description": "Compound and extracts’ effects on intracellular Ca^2+ concentration ([Ca^2+]i) were determined using the selective intracellular fluorescent probe for Ca^2+ Fluo-4. Assay of rat TRPA1, TRPV2, TRPV3, TRPV4, TRPM8 or human TRPV1 mediated elevation of intracellular Ca^2+ in transfected HEK-293 cells are been performed as described. Briefly, human embryonic kidney (HEK-293) cells, stably transfected with rat TRPA1, TRPV2, TRPV3, TRPV4, TRPM8 or human TRPV1 (selected by Geneticin 600 μg mL^−1) or not transfected, were cultured in EMEM + 2 mM Glutamine + 1% Non-Essential Amino Acids (NEAA) + 10% FBS and maintained at 37 °C with 5% CO2. Stable transfections were checked by quantitative real-time polymerase chain reaction (PCR), quantitative real-time PCR was performed by an iCycler-iQ (Bio-Rad, Hercules, CA, USA) in a 20 μL reaction mixture containing the following: 10 μL iQ SYBR Green Supermix 2X (Bio-Rad), 20 ng of cDNA (calculated on the basis of the retro-transcribed RNA), and 330 nM for each primer. […] Cell fluorescence before and after the addition of various concentrations of test compounds and extracts were measured normalizing the effects against the response to ionomycin (4 µM). […] The potency of the compounds (EC50 values) are determined as the concentration required to produce half-maximal increases in [Ca^2+]i. […]"}, "human TRPV1": {"target": "T3, human TRPV1 (Homo sapiens, UniProt Q8NER1)", "T3 construct": "expressed in transfected cells; host or cells: HEK-293", "T3 sequence (Q8NER1 whole entry)": "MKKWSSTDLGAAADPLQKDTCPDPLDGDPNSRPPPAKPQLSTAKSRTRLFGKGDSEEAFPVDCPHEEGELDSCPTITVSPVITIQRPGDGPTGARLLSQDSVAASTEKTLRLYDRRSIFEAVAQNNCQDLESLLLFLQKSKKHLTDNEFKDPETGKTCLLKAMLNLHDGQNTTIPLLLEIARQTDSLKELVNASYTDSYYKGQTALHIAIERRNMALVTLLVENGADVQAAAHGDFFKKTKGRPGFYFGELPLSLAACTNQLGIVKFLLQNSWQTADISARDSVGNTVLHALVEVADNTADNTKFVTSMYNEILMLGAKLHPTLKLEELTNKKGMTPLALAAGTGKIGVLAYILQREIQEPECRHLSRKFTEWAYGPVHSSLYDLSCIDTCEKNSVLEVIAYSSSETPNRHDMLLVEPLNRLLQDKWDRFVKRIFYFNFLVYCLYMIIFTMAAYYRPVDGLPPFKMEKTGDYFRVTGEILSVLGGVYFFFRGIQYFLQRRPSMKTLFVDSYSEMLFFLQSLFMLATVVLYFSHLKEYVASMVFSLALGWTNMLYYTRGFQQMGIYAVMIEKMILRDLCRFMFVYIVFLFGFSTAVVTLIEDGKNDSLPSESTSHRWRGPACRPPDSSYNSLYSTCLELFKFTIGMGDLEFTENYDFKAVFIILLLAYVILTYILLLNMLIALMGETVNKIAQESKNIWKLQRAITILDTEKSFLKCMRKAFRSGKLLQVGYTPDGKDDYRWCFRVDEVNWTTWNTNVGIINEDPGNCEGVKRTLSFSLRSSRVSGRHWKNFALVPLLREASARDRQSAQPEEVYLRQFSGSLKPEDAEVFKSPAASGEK", "assay": "Elevation of intracellular Ca2+ (Fluo-4) in HEK-293 cells stably transfected with human TRPV1", "type": "cell-based", "description": "Assay of rat TRPA1, TRPV2, TRPV3, TRPV4, TRPM8 or human TRPV1 mediated elevation of intracellular Ca^2+ in transfected HEK-293 cells are been performed as described. Briefly, human embryonic kidney (HEK-293) cells, stably transfected with rat TRPA1, TRPV2, TRPV3, TRPV4, TRPM8 or human TRPV1 (selected by Geneticin 600 μg mL^−1) or not transfected, were cultured in EMEM + 2 mM Glutamine + 1% Non-Essential Amino Acids (NEAA) + 10% FBS and maintained at 37 °C with 5% CO2. Stable transfections were checked by quantitative real-time polymerase chain reaction (PCR), quantitative real-time PCR was performed by an iCycler-iQ (Bio-Rad, Hercules, CA, USA) in a 20 μL reaction mixture containing the following: 10 μL iQ SYBR Green Supermix 2X (Bio-Rad), 20 ng of cDNA (calculated on the basis of the retro-transcribed RNA), and 330 nM for each primer. Optimized primers for SYBR Green analysis (and relative TaOpt) and optimum annealing temperatures were designed by Allele-Id software version 7.0 (Biosoft International, Palo Alto, CA, USA) and were synthesized (HPLC-purification grade) by MWG-Biotech AG (Ebersberg, Germany). Assays were performed in quadruplicate (maximal ΔCt of replicate samples, <0.5). Relative expression analysis, correct for PCR efficiency and normalized with respect to reference genes β-actin and glyceraldehyde 3-phosphate dehydrogenase, was performed by GENEX software (Bio-Rad). […] The day of the experiment the cells were loaded with Fluo-4 AM (4 μM in DMSO containing 0.02% Pluronic F-127) for 1 h in the dark at room temperature, rinsed and resuspended in Tyrode’s solution (145 mM NaCl, 2.5 mM KCl, 1.5 mM CaCl2, 1.2 mM MgCl2, 10 mM D-glucose, and 10 mM HEPES, pH 7.4), finally transferred to a quartz cuvette of a spectrofluorimeter (Perkin-Elmer LS50B; λEX = 488 nm, λEM = 516 nm) equipped with PTP-1 Fluorescence Peltier System (PerkinElmer Life and Analytical Sciences, Waltham, MA, USA) under continuous stirring. Cell fluorescence before and after the addition of various concentrations of test compounds and extracts were measured normalizing the effects against the response to ionomycin (4 µM). The values of the effect on [Ca^2+]i in HEK-293 cells not transfected are used as baseline and subtracted from the values obtained from transfected cells. […] The potency of the compounds (EC50 values) are determined as the concentration required to produce half-maximal increases in [Ca^2+]i. In TRPV3 assay TRPV3-expressing HEK293 cells were first sensitized with the structurally unrelated agonist 2-aminoethoxydiphenyl borate (100 μM). Antagonist/desensitizing behaviour is evaluated against the agonist of the TRP analyzed by adding the compounds directly in the quartz cuvette 5 min before stimulation of cells with the agonist. […]"}}}
{"smiles": "C[C@@H]1O[C@@H](Oc2ccc(CN=C=S)cc2)[C@H](O)[C@H](O)[C@H]1O", "note": "[Moringin, 4-[(α-L-rhamnosyloxy)benzyl]isothiocyanate]", "values": [{"measurement": "IC50", "setting": "rat TRPV3", "value": "> 100", "unit": "µM"}, {"measurement": "IC50", "setting": "rat TRPV2", "value": "> 100", "unit": "µM"}, {"measurement": "Increase of [Ca2+]i in not transfected HEK-293 cells, % of the response in rTRPA1 HEK-293 cells", "setting": "[1]", "value": "< 10", "unit": "%"}, {"measurement": "EC50", "setting": "human TRPV1", "value": "20.4 ± 1.3", "unit": "µM"}, {"measurement": "IC50", "setting": "human TRPV1", "value": "> 50", "unit": "µM"}, {"measurement": "Efficacy (% Ionomycin 4 µM)", "setting": "human TRPV1; TRPV1", "value": "46.8 ± 0.7", "unit": "%"}, {"measurement": "Potency EC50", "setting": "human TRPV1; TRPV1", "value": "weak"}]}
